According to US20250034159A1, “INHIBITORS OF EPIDERMAL GROWTH FACTOR RECEPTOR” (ORIC Pharmaceuticals, Inc., priority 2021, published 2025):

Columns and labels:
BaF3_EGFR d19/CS cells = assay: Biological Activity Assay D: BaF3 cell proliferation assay, EGFR exon 19 deletion/C797S (BaF3 d19/CS); assay type: cell-based; details: Ba/F3 EGFR; BaF3_EGFR d19/CS cells, ~72 hours, CellTiter-Glo; read-out: BaF3 d19/CS IC50
BaF3_EGFR LR/CS cells = assay: Biological Activity Assay D: BaF3 cell proliferation assay, EGFR L858R/C797S mutant (BaF3 LR/CS); assay type: cell-based; details: Ba/F3 EGFR; BaF3_EGFR LR/CS cells, ~72 hours, CellTiter-Glo; read-out: BaF3 LR/CS IC50
[1] = target: recombinant human EGFR L858R/C797S double mutant protein (Homo sapiens (Human), UniProt P00533, C797S/L858R); assay: Biological Activity Assay B: biochemical assay against EGFR L858R/C797S protein (EGFR LR/CS)
Sequence of recombinant human EGFR L858R/C797S double mutant protein (P00533 25-1210 C797S/L858R): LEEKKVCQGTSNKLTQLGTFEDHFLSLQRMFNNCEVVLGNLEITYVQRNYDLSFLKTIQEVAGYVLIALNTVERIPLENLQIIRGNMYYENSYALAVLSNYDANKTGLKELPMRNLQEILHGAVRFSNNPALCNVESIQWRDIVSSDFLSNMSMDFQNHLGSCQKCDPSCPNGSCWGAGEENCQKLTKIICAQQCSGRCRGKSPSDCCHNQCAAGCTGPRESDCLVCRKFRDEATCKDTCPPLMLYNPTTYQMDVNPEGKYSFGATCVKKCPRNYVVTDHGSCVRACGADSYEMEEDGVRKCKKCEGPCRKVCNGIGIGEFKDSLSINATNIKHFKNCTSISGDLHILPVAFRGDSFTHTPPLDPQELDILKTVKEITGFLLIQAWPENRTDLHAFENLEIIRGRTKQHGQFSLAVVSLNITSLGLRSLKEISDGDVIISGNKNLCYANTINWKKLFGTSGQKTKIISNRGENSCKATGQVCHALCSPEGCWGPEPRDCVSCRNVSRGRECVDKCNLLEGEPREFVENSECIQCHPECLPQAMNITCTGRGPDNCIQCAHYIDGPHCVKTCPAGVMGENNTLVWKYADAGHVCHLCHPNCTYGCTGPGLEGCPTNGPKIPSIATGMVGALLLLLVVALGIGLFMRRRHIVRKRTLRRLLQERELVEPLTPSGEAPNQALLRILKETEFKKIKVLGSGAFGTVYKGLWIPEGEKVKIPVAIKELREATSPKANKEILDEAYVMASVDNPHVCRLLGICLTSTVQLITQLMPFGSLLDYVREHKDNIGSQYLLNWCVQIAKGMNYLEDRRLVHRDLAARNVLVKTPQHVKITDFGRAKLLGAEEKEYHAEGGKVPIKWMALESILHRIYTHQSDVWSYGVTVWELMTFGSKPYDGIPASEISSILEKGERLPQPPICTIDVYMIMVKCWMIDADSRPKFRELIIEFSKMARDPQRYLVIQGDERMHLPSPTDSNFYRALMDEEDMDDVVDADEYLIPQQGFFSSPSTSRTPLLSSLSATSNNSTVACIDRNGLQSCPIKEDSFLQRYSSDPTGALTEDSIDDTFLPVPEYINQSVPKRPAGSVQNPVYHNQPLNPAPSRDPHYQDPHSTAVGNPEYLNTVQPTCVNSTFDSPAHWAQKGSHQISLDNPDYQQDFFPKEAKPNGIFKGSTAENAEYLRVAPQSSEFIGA
Experimental: In Row A of a 384-well polypropylene plate, was added 48 μL of DMSO. In wells A1 and A24, were added 12 μL of DMSO. […] To a well in Row A were added 12 μL of each 10 mM test compound stock (100% DMSO). […] The final intermediate dilution plate contained 4×16-point compound serial dilutions in assay buffer. The DMSO concentration was 10%. The intermediate compound dilution plate was transferred to the Bravo and the “5 uL dispense into ARP.pro” protocol was run. To the black low volume assay ready plates, were added 5 μL of 40 uM Phosphosens peptide sensor/4 mM ATP working solution to each well. […] To column 24, was added 10 μL of assay buffer. The final DMSO concentration was 2.5%. […] The plates were sealed with the TopSeal-A Plus plate seals. […] Set for 90 cycles with 120 second interval. […] The slope of each curve was constructed using Dotmatics in each well, and each IC50s was calculated using a 4-parameter fit model.

Ba/F3_EGFR WT cells = assay: Biological Activity Assay D: BaF3 cell proliferation assay, EGFR wild-type (BaF3 WT); assay type: cell-based; details: Ba/F3 EGFR; Ba/F3_EGFR WT cells, ~72 hours, CellTiter-Glo; read-out: BaF3 WT IC50
[2] = target: recombinant human EGFR exon 19 deletion/C797S double mutant protein (Homo sapiens (Human), UniProt P00533, C797S/DEL746-750); assay: Biological Activity Assay C: biochemical assay against EGFR exon 19 deletion/C797S protein (EGFR d19/CS)
Sequence of recombinant human EGFR exon 19 deletion/C797S double mutant protein (P00533 other isoform, or with tags, fused parts or gaps C797S/del 1-668/del 746-750 limits assumed): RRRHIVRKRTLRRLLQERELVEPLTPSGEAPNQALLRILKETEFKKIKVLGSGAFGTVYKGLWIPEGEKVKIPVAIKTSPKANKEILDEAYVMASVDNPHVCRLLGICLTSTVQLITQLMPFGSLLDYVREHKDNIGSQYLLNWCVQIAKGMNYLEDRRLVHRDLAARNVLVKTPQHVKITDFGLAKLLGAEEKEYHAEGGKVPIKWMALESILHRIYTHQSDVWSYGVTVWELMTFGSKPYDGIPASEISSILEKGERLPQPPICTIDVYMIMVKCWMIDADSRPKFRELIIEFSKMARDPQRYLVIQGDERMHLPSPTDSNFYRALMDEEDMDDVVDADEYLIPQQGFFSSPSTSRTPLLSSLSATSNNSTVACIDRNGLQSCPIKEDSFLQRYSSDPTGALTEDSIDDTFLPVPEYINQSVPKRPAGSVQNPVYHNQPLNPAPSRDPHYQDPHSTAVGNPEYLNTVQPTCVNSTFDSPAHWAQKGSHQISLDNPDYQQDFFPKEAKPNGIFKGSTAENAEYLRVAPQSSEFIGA
Outline: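 Compounds were tested as 16-point serial dilutions (final DMSO 2.5%) with a Phosphosens peptide sensor/ATP working solution (40 uM/4 mM). The signal was read kinetically over 90 cycles at 120 s intervals. IC50s came from 4-parameter fits of per-well slopes.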

Structure (SMILES) | IC50 (BaF3_EGFR d19/CS cells) [nM] | IC50 (BaF3_EGFR LR/CS cells) [nM] | IC50 [1] [nM] | IC50 (Ba/F3_EGFR WT cells) [nM] | IC50 [2] [nM]
CS(=O)(=O)N1CC[C@H](n2cc(-c3ncnc4oc(-c5ccccc5)cc34)c(-c3ccc(F)cc3)n2)C1 (single isomer, unassigned) [Example 102] | 16.5 | 21.1 | 0.35 | 161 | 0.2
OCCCc1nc(-c2ccc(F)cc2)n(-c2ccnc3[nH]c(-c4ccccc4)cc23)n1 [Example 3, 3-[5-(4-Fluorophenyl)-1-(2-phenyl-1H-pyrrolo[2,3-b]pyridin-4-yl)-1H-1,2,4-triazol-3-yl]propan-1-ol] | 169 | 130 | 3.15 | 808 | 1.66
OCCCn1cc(-c2ccnc3[nH]c(-c4ccccc4)nc23)c(-c2ccc(F)cc2)n1 [Example 4, 3-[3-(4-Fluorophenyl)-4-(2-phenyl-3H-imidazo[4,5-b]pyridin-7-yl)-1H-pyrazol-1-yl]propan-1-ol] | 36.4 | 32.1 | 1.29 | 1400 | 0.466
OCCCn1cc(-c2ncnc3oc(-c4ccccc4)nc23)c(-c2ccc(F)cc2)n1 [Example 5, 3-[3-(4-Fluorophenyl)-4-(2-phenyl[1,3]oxazolo[5,4-d]pyrimidin-7-yl)-1H-pyrazol-1-yl]propan-1-ol] | 90.6 | 80.3 | 1.2 | 2430 | 0.45
OCCCn1cc(-c2ncnc3[nH]c(-c4ccccc4)nc23)c(-c2ccc(F)cc2)n1 [Example 6, 3-[3-(4-Fluorophenyl)-4-(8-phenyl-9H-purin-6-yl)-1H-pyrazol-1-yl]propan-1-ol] | 5.81 | 4.4 | 0.253 | 1100 | 0.148
OCCCc1nc(-c2ccc(F)cc2)c(-c2ccnc3[nH]c(-c4ccccc4)cc23)s1 [Example 8, 3-[4-(4-Fluorophenyl)-5-(2-phenyl-1H-pyrrolo[2,3-b]pyridin-4-yl)-1,3-thiazol-2-yl]propan-1-01] | 19.6 | 19.6 | 1.09 | 754 | 1.14
OCCCn1cc(-c2ncnc3[nH]c(-c4ccccc4)cc23)c(-c2ccc(F)cc2)n1 [Example 9, 3-[3-(4-Fluorophenyl)-4-(6-phenyl-7H-pyrrolo[2,3-d]pyrimidin-4-yl)-1H-pyrazol-1-yl]propan-1-ol] | 0.547 | 0.63 | 0.099 | 15.4 | 0.121
CN1CCN(c2ccc(-c3nc4c(-c5cn(CCCO)nc5-c5ccc(F)cc5)ncnc4o3)cc2)CC1 [Example 10, 3-[3-(4-Fluorophenyl)-4-{2-[4-(4-methylpiperazin-1-yl)phenyl][1,3]oxazolo[5,4-d]pyrimidin-7-yl}-1H-pyrazol-1-yl]propan-1-ol] | 1.31 | 1.63 | 0.152 | 74 | 0.113
OCCCn1cc(-c2ncnc3oc(-c4ccccc4)cc23)c(-c2ccc(F)cc2)n1 [Example 11, 3-[3-(4-Fluorophenyl)-4-(6-phenylfuro[2,3-d]pyrimidin-4-yl)-1H-pyrazol-1-yl]propan-1-ol] | 5.79 | 6.91 | 0.521 | 594 | 0.408
OCCCc1cc(-c2ccnc3[nH]c(-c4ccccc4)cc23)n(-c2ccc(F)cc2)n1 [Example 12, 3-[1-(4-fluorophenyl)-5-{2-phenyl-1H-pyrrolo[2,3-b]pyridin-4-yl}pyrazol-3-yl]propan-1-ol] | 21.4 | 25.3 | 1.08 | 483 | 0.732
CN1CCN(c2ccc(-c3nc4c(-c5cn(CCCO)nc5-c5ccc(F)cc5)ccnc4[nH]3)cc2)CC1 [Example 13, 3-[3-(4-Fluorophenyl)-4-{2-[4-(4-methylpiperazin-1-yl)phenyl]-3H-imidazo[4,5-b]pyridin-7-yl}-1H-pyrazol-1-yl]propan-1-ol] | 3.71 | 4.1 | 0.272 | 255 | 0.173
CN1CC=C(c2cc3c(-c4cn(CCCO)nc4-c4ccc(F)cc4)ccnc3[nH]2)CC1 [Example 14, 3-{3-(4-Fluorophenyl)-4-[2-(1-methyl-1,2,3,6-tetrahydropyridin-4-yl)-1H-pyrrolo[2,3-b]pyridin-4-yl]-1H-pyrazol-1-yl}propan-1-ol] | 113 | 120 | 7.58 | 1350 | 3.3
CN1CCN(c2ccc(-c3nc4c(-c5cn(CCCO)nc5-c5ccc(F)cc5)ncnc4[nH]3)cc2)CC1 [Example 15, 3-[3-(4-Fluorophenyl)-4-{8-[4-(4-methylpiperazin-1-yl)phenyl]-9H-purin-6-yl}-1H-pyrazol-1-yl]propan-1-ol] | 0.949 | 1.02 | 0.27 | 64.7 | 0.207
N#Cc1c(-c2ccc(F)cc2)c(-c2ccnc3[nH]c(-c4ccccc4)cc23)nn1CCCO [Example 16, 4-(4-Fluorophenyl)-1-(3-hydroxypropyl)-3-(2-phenyl-1H-pyrrolo[2,3-b]pyridin-4-yl)-1H-pyrazole-5-carbonitrile] | 3.39 | 4.38 | 1.47 | 816 | 1.57
OCCCn1cc(-c2ccnc3[nH]c(-c4nnco4)cc23)c(-c2ccc(F)cc2)n1 [Example 17, 3-{3-(4-Fluorophenyl)-4-[2-(1,3,4-oxadiazol-2-yl)-1H-pyrrolo[2,3-b]pyridin-4-yl]-1H-pyrazol-1-yl}propan-1-ol] | 157 | 153 | 8.44 | 1740 | 3.46
CN1CCN(c2ccc(-c3cc4c(-c5nn(CCCO)nc5-c5ccc(F)cc5)ccnc4[nH]3)cc2)CC1 [Example 18, 3-[4-(4-Fluorophenyl)-5-{2-[4-(4-methylpiperazin-1-yl)phenyl]-1H-pyrrolo[2,3-b]pyridin-4-yl}-2H-1,2,3-triazol-2-yl]propan-1-ol] | 1.83 | 2.06 | 0.141 | 71.4 | 0.0926
CN1CCN(c2ccc(-c3cc4c(-c5cn(CCCO)nc5-c5ccc(F)cc5)ncnc4[nH]3)cc2)CC1 [Example 19, 3-[3-(4-Fluorophenyl)-4-{6-[4-(4-methylpiperazin-1-yl)phenyl]-7H-pyrrolo[2,3-d]pyrimidin-4-yl}-1H-pyrazol-1-yl]propan-1-ol] | 0.244 | 0.402 | 0.242 | 8.67 | 0.17
CCC(=O)CCn1cc(-c2ncnc3oc(-c4ccccc4)nc23)c(-c2ccc(F)cc2)n1 [Example 20, 1-[3-(4-fluorophenyl)-4-(2-phenyl[1,3]oxazolo[5,4-d]pyrimidin-7-yl)-1H-pyrazol-1-yl]pentan-3-one] | 686 | 578 | 4.92 | 5340 | 4.19
CC(C)(O)CCn1cc(-c2ncnc3oc(-c4ccccc4)nc23)c(-c2ccc(F)cc2)n1 [Example 21, 4-[3-(4-Fluorophenyl)-4-(2-phenyl[1,3]oxazolo[5,4-d]pyrimidin-7-yl)-1H-pyrazol-1-yl]-2-methylbutan-2-ol] | 539 | 375 | 5.2 | 18500 | 5.47
CC(C)(O)CCn1ncc(-c2ncnc3oc(-c4ccccc4)nc23)c1-c1ccc(F)cc1 [Example 22, 4-[5-(4-fluorophenyl)-4-(2-phenyl[1,3]oxazolo[5,4-d]pyrimidin-7-yl)-1H-pyrazol-1-yl]-2-methylbutan-2-ol] | 4100 | 3660 | 197 | 20000 | 90.9
OCCCCn1nc(-c2ccc(F)cc2)c(-c2ccnc3[nH]c(-c4ccccc4)cc23)n1 [Example 23, 4-[4-(4-Fluorophenyl)-5-(2-phenyl-1H-pyrrolo[2,3-b]pyridin-4-yl)-2H-1,2,3-triazol-2-yl]butan-1-ol] | 31.9 | 69.9 | 1.1 | 2650 | 0.633
OC1(CCn2cc(-c3ncnc4oc(-c5ccccc5)cc34)c(-c3ccc(F)cc3)n2)CC1 [Example 24, 1-{2-[3-(4-fluorophenyl)-4-(6-phenylfuro[2,3-d]pyrimidin-4-yl)-1H-pyrazol-1-yl]ethyl}cyclopropan-1-ol] | 44.7 | 124 | 1.13 | 2490 | 0.909
